Patent US9296774B2, “Halogenated dideoxy sugar derivates, preparation method and application thereof” (Suzhou Harmony Biotechnology Co., Ltd., priority 2009, dated 2016)
“Also recorded” adds a separate entry of the source.

How the values were obtained:
[1] = test system: mouse; experiment: Acute toxicity (LD50), mouse ig
[2] = test system: mouse; experiment: Acute toxicity (LD50), mouse ip injection; settings: mouse ip after injection
[3] = test system: 05-732 human bone tumor; experiment: Mouse transplant tumor, 05-732 human osteosarcoma; settings: for inhibitive effect on mouse transplant tumor (in words): 05-732 human bone tumor, 125 mg/kg; for Inhibtion of tumor growth / Weight of tumor / weight end / weight start: 05-732 human osteosarcoma, 125 mg/kg once a day for 7 days; for weight end: animal weight at end; for weight start: animal weight at start
Experimental: (§1) Saline solution was used as a control. The positive group CTX was treated with the compounds at an amount of 0.4 ml/20 g. The compounds were applied once a day for consecutive 7 days.

[4] = test system: anaplastic thyroid carcinoma TA-K cells; experiment: Mouse transplant tumor, human anaplastic thyroid carcinoma TA-K; settings: for inhibitive effect on mouse transplant tumor (in words): anaplastic thyroid carcinoma TA-K, 125 mg/kg; for Inhibition of tumor growth / Weight of tumor / weight end / weight start: human anaplastic thyroid carcinoma TA-K, 125 mg/kg once a day for 7 days; for weight end: animal weight at end; for weight start: animal weight at start;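 as to all read-outs here: Tumor-bearing mice compared against a saline-treated control group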
Experimental: as §1

[5] = in vivo; settings: mouse, ip
[6] = in vivo; settings: mouse, po
[7] = test system: MGC human stomach cancer cells; experiment: Mouse transplant tumor, MGC human stomach cancer; settings: for inhibitive effect on mouse transplant tumor (in words): 125 mg/kg; for Inhibition of tumor growth / Weight of tumor / weight end / weight start: 125 mg/kg once a day for 7 days; for weight end: animal weight at end; for weight start: animal weight at start;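 as to all read-outs here: control group received saline vehicle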
Experimental: Saline solution was used as a control. The positive group CTX was treated with the compounds at an amount of 0.4 ml/20 g. The compounds were applied once a day for consecutive 7 days. The animals were then compensated.

[8] = test system: MX-1 human breast cancer cells; experiment: Mouse transplant tumor, MX-1 human breast cancer; settings: for inhibitive effect on mouse transplant tumor (in words): 125 mg/kg; for Inhibition of tumor growth / Weight of tumor / weight end / weight start: 125 mg/kg once a day for 7 days; for weight end: animal weight at end; for weight start: animal weight at start;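 as to all read-outs here: mice given saline served as the control group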
Experimental: as §1

[9] = test system: B16 malignant melanoma; experiment: Mouse transplant tumor, B16 malignant melanoma; settings: for Inhibition of tumor growth (%) / Weight of tumor / weight end / weight start: B16, 125 mg/kg once a day for 7 days; for weight end: body weight at end; for weight start: body weight at start; for inhibitive effect on mouse transplant tumor (in words): B16 malignant melanoma, 125 mg/kg
Experimental: as §1

[10] = test system: AsPc human pancreatic cancer cells; experiment: Mouse transplant tumor, AsPc human pancreatic cancer; settings: for inhibitive effect on mouse transplant tumor (in words): 125 mg/kg; for Inhibition of tumor growth / Weight of tumor / weight end / weight start: 125 mg/kg once a day for 7 days; for weight end: animal weight at end; for weight start: animal weight at start;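 as to all read-outs here: Saline-treated mice served as the control group, with a CTX-treated group as positive reference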
Experimental: as §1

## CC(=O)OCC1OC(OP(=O)(NCCCl)NCCCl)CC(Br)C1OC(C)=O (single isomer, unassigned) [Compound 6]
[1]
  LD50: 2205.8 mg/kg
[2]
  LD50: 307.1 mg/kg

## CC(=O)OCC1OC(Br)C(Br)CC1OC(C)=O (single isomer, unassigned) [Compound 3]
[3]
  inhibitive effect on mouse transplant tumor (in words): good inhibitive effect; also recorded: significant effect
  Inhibtion of tumor growth: 71.5
  Weight of tumor: 0.8
  weight end: 18.3
  weight start: 18.2
[4]
  inhibitive effect on mouse transplant tumor (in words): good inhibitive effect; also recorded: significant effect
  Inhibition of tumor growth: 73.2
  Weight of tumor: 0.7
  weight end: 18.3
  weight start: 18.2
[5]
  LD50: 359 mg/kg
[6]
  LD50: 2320 mg/kg
[7]
  inhibitive effect on mouse transplant tumor (in words): good inhibitive effect; also recorded: significant effect
  Inhibition of tumor growth: 72.5
  Weight of tumor: 0.7
  weight end: 18.3
  weight start: 18.2
[8]
  inhibitive effect on mouse transplant tumor (in words): good inhibitive effect; also recorded: significant effect
  Inhibition of tumor growth: 75.8
  Weight of tumor: 0.6
  weight end: 18.3
  weight start: 18.2
[9]
  Inhibition of tumor growth (%): 76.8%
  Weight of tumor: 0.6
  weight end: 18.3
  weight start: 18.2
  inhibitive effect on mouse transplant tumor (in words): good inhibitive effect; also recorded: significant effect
[10]
  inhibitive effect on mouse transplant tumor (in words): good inhibitive effect; also recorded: significant effect
  Inhibition of tumor growth: 77.3
  Weight of tumor: 0.5
  weight end: 18.3
  weight start: 18.2

## CC(=O)OCC1OC(OP(=O)(NCCCl)NCCCl)C(Br)CC1OC(C)=O (single isomer, unassigned) [Compound 8]
[1]
  LD50: 2017.5 mg/kg
[2]
  LD50: 301.4 mg/kg

## COc1cc(C2c3cc4c(cc3C(C3OC(COC(C)=O)C(OC(C)=O)CC3Br)C3COC(=O)C23)OCO4)cc(OC)c1O (centres unmarked) [Compound 14]
[3]
  inhibitive effect on mouse transplant tumor (in words): good inhibitive effect; also recorded: significant effect
  Inhibtion of tumor growth: 72.3
  Weight of tumor: 0.8
[4]
  inhibitive effect on mouse transplant tumor (in words): good inhibitive effect; also recorded: significant effect
  Inhibition of tumor growth: 76.2
  Weight of tumor: 0.6
[5]
  LD50: 300 mg/kg
[6]
  LD50: 1970 mg/kg
[7]
  inhibitive effect on mouse transplant tumor (in words): good inhibitive effect; also recorded: significant effect
  Inhibition of tumor growth: 71.9
  Weight of tumor: 0.7
[8]
  inhibitive effect on mouse transplant tumor (in words): good inhibitive effect; also recorded: significant effect
  Inhibition of tumor growth: 76.3
  Weight of tumor: 0.6
[9]
  Inhibition of tumor growth (%): 76.2%
  Weight of tumor: 0.6
  inhibitive effect on mouse transplant tumor (in words): good inhibitive effect; also recorded: significant effect
[10]
  inhibitive effect on mouse transplant tumor (in words): good inhibitive effect; also recorded: significant effect
  Inhibition of tumor growth: 75.2
  Weight of tumor: 0.3

## COc1cc(C2c3cc4c(cc3C(C3CC(Br)C(OC(C)=O)C(COC(C)=O)O3)C3COC(=O)C23)OCO4)cc(OC)c1O (centres unmarked) [Compound 13]
[3]
  inhibitive effect on mouse transplant tumor (in words): good inhibitive effect
[4]
  inhibitive effect on mouse transplant tumor (in words): good inhibitive effect
[5]
  LD50: 299 mg/kg
[6]
  LD50: 1830 mg/kg
[7]
  inhibitive effect on mouse transplant tumor (in words): good inhibitive effect
[8]
  inhibitive effect on mouse transplant tumor (in words): good inhibitive effect
[9]
  inhibitive effect on mouse transplant tumor (in words): good inhibitive effect
[10]
  inhibitive effect on mouse transplant tumor (in words): good inhibitive effect

## CC(=O)OCC1OC(OP(=O)(NCCCl)NCCCl)C(Br)CC1OC(C)=O (single isomer, unassigned) [Compound 7]
[3]
  inhibitive effect on mouse transplant tumor (in words): good inhibitive effect; also recorded: significant effect
  Inhibtion of tumor growth: 81.3
  Weight of tumor: 0.5
  weight end: 18.4
  weight start: 18.3
[4]
  inhibitive effect on mouse transplant tumor (in words): good inhibitive effect; also recorded: significant effect
  Inhibition of tumor growth: 84.2
  Weight of tumor: 0.4
  weight end: 18.4
  weight start: 18.3
[5]
  LD50: 316 mg/kg
[6]
  LD50: 2220 mg/kg
[7]
  inhibitive effect on mouse transplant tumor (in words): good inhibitive effect; also recorded: significant effect
  Inhibition of tumor growth: 83.8
  Weight of tumor: 0.4
  weight end: 18.4
  weight start: 18.3
[8]
  inhibitive effect on mouse transplant tumor (in words): good inhibitive effect; also recorded: significant effect
  Inhibition of tumor growth: 80.8
  Weight of tumor: 0.5
  weight end: 18.4
  weight start: 18.3
[9]
  Inhibition of tumor growth (%): 80.4%
  Weight of tumor: 0.5
  weight end: 18.4
  weight start: 18.3
  inhibitive effect on mouse transplant tumor (in words): good inhibitive effect; also recorded: significant effect
[10]
  inhibitive effect on mouse transplant tumor (in words): good inhibitive effect; also recorded: significant effect
  Inhibition of tumor growth: 73.6
  Weight of tumor: 0.6
  weight end: 18.4
  weight start: 18.3

## CC(=O)OCC1OC(OP(=O)(O)N(CCCl)CCCl)CC(Br)C1OC(C)=O (centres unmarked) [Compound 9]
[5]
  LD50: 307 mg/kg
[6]
  LD50: 2140 mg/kg

## CC(=O)OCC1OC(Br)C(Br)CC1OC(C)=O (single isomer, unassigned) [Compound 4]
[1]
  LD50: 2389.2 mg/kg
[2]
  LD50: 356.2 mg/kg

## CC(=O)OCC1OC(OP(=O)(O)N(CCCl)CCCl)C(Br)CC1OC(C)=O (centres unmarked) [Compound 11]
[5]
  LD50: 323 mg/kg
[6]
  LD50: 2030 mg/kg

## CC(=O)OCC1OC(OP(=O)(NCCCl)NCCCl)CC(Br)C1OC(C)=O (single isomer, unassigned) [Compound 5]
[3]
  inhibitive effect on mouse transplant tumor (in words): good inhibitive effect; also recorded: significant effect
  Inhibtion of tumor growth: 74.9
  Weight of tumor: 0.7
  weight end: 18.6
  weight start: 18.3
[4]
  inhibitive effect on mouse transplant tumor (in words): good inhibitive effect; also recorded: significant effect
  Inhibition of tumor growth: 76.6
  Weight of tumor: 0.6
  weight end: 18.6
  weight start: 18.3
[5]
  LD50: 301 mg/kg
[6]
  LD50: 2120 mg/kg
[7]
  inhibitive effect on mouse transplant tumor (in words): good inhibitive effect; also recorded: significant effect
  Inhibition of tumor growth: 75.7
  Weight of tumor: 0.6
  weight end: 18.6
  weight start: 18.3
[8]
  inhibitive effect on mouse transplant tumor (in words): good inhibitive effect; also recorded: significant effect
  Inhibition of tumor growth: 83.6
  Weight of tumor: 0.4
  weight end: 18.6
  weight start: 18.3
[9]
  Inhibition of tumor growth (%): 76.4%
  Weight of tumor: 0.6
  weight end: 18.6
  weight start: 18.3
  inhibitive effect on mouse transplant tumor (in words): good inhibitive effect; also recorded: significant effect
[10]
  inhibitive effect on mouse transplant tumor (in words): good inhibitive effect; also recorded: significant effect
  Inhibition of tumor growth: 81.5
  Weight of tumor: 0.4
  weight end: 18.6
  weight start: 18.3
